This passage reports EC50 and IC50 results from patent publication US11267825B2 (AICURIS GMBH & CO. KG, priority 2017, dated 2022).

The term EC50 denotes the concentration giving half of the maximal effect. A word on the IC50: it is the concentration that gives 50% inhibition.

In one assay the test system is HBV. Kind of assay: Determination of HBV DNA from the supernatants of HepAD38 cells (anti-HBV activity). The class given is cell-based, hepatitis B virus. The note with it: Hepatitis B virus, 144 h; HBV DNA in HepAD38 supernatant at day 6; read-out: Cell Activity (EC50). The procedure, abridged: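 EC50 values were obtained by non-linear regression of HBV DNA copy numbers measured by qPCR against pCH-9/3091 plasmid standards. The DNA came from filtered supernatants collected on day 6. Before that, tetracycline-withdrawn HepAD38 cells had been exposed to serial half-log compound dilutions, with tetracycline-treated cells as the non-producing control.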

In a further assay the target is HBV core protein (UniProt P03146). The class given is biochemical. The following applies: read-out: Assembly Activity (IC50); BODIPY-FL labelled core protein, assembly started with NaCl, read after 6 min. The method in brief:
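Compounds tested at 8 concentrations in 0.5-log steps from 100, 31.6 or 10 μM against 1.0–2.0 μM BODIPY-FL-labelled Cys150 core dimers (residues 1–149), 50 mM HEPES pH 7.5. NaCl ([…] final) triggered assembly; quenching read at 6 min, 477/525 nm, with 2.5 M and 0 M NaCl as controls; EC50 by nonlinear fit.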

Chain of HBV core protein (P03146 whole entry, looked up, the tested form may be a part): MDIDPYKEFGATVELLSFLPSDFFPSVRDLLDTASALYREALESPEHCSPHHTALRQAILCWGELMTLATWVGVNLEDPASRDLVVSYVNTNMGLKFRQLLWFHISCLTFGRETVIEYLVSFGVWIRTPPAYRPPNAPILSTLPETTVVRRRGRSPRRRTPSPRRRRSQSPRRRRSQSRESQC

In the case of `Nc1nc2c(s1)CN(C(=O)c1cc3c(C(F)F)ccc(F)c3[nH]1)CC2` [Example 341, 5-[4-(difluoromethyl)-7-fluoro-1H-indole-2-carbonyl]-4H,5H,6H,7H-[1,3]thiazolo[5,4-c]pyridin-2-amine], the EC50 in the assay with HBV lay within 1 to 10 µM. At HBV core protein, the IC50 was less than 5 µM.

Consider `O=C(c1cc2ccccc2[nH]1)N1CCc2nc(NCC3COCCO3)sc2C1` (stereo not shown) [Example 66, N-[(1,4-dioxan-2-yl)methyl]-5-(1H-indole-2-carbonyl)-4H,5H,6H,7H-[1,3]thiazolo[5,4-c]pyridin-2-amine], for which, in the assay on HBV, the EC50 is less than 1 µM. Also, at HBV core protein, the IC50 was less than 5 µM.

As for `O=C(c1cc2ccccc2[nH]1)N1CCc2nc(NCC3(CO)CCOCC3)sc2C1` [Example 237, [4-({[5-(1H-indole-2-carbonyl)-4H,5H,6H,7H-[1,3]thiazolo[5,4-c]pyridin-2-yl]amino}methyl)oxan-4-yl]methanol], the EC50 in the assay with HBV was less than 1 µM. At HBV core protein, the IC50 was less than 5 µM.

`O=C(c1cc2ccccc2[nH]1)N1CCc2nc(NC(CO)C3CCOC3)sc2C1` (stereo not shown) [Example 297, 2-{[5-(1H-indole-2-carbonyl)-4H,5H,6H,7H-[1,3]thiazolo[5,4-c]pyridin-2-yl]amino}-2-(oxolan-3-yl)ethan-1-ol]: in the assay with HBV, the EC50 is less than 1 µM. Also, the IC50 at HBV core protein is less than 5 µM.

As to `Nc1nc2c(s1)CN(C(=O)c1cc3c(Cl)ccc(F)c3[nH]1)CC2` [Example 85, 5-(4-chloro-7-fluoro-1H-indole-2-carbonyl)-4H,5H,6H,7H-[1,3]thiazolo[5,4-c]pyridin-2-amine], in the assay with HBV, the EC50 was less than 1 µM. In addition, on HBV core protein, the IC50 is less than 5 µM.

As to `O=C(c1cc2ccccc2[nH]1)N1CCc2nc(O)sc2C1` [Example 141, 5-(1H-indole-2-carbonyl)-4H,5H,6H,7H-[1,3]thiazolo[5,4-c]pyridin-2-ol], the EC50 in the assay on HBV was in the range of 1 to 10 µM. The IC50 at HBV core protein is less than 100 µM.

As for `CN1CCOCC1CNc1nc2c(s1)CN(C(=O)c1cc3ccccc3[nH]1)CC2` (stereo not shown) [Example 294, 5-(1H-indole-2-carbonyl)-N-[(4-methylmorpholin-3-yl)methyl]-4H,5H,6H,7H-[1,3]thiazolo[5,4-c]pyridin-2-amine], in the assay with HBV, the half-maximal effective concentration (EC50) was less than 1 µM. For the same compound, the IC50 on HBV core protein was less than 5 µM.

On to `O=C(c1cc2ccccc2[nH]1)N1CCc2nc(NC3(c4ccccc4)CC3)sc2C1` [Example 419, 5-(1H-indole-2-carbonyl)-N-(1-phenylcyclopropyl)-4H,5H,6H,7H-[1,3]thiazolo[5,4-c]pyridin-2-amine], for which, in the assay on HBV, the EC50 was less than 1 µM. The IC50 at HBV core protein lay within 5 to 10 µM.

As for `CCc1cc(F)cc2[nH]c(C(=O)N3CCc4nc(NC[C@@H]5CCOC5)sc4C3)cc12` [Example 328, 5-(4-ethyl-6-fluoro-1H-indole-2-carbonyl)-N-{[(3S)-oxolan-3-yl]methyl}-4H,5H,6H,7H-[1,3]thiazolo[5,4-c]pyridin-2-amine], in the assay with HBV, the EC50 was less than 1 µM. Further, the half-inhibitory concentration (IC50) at HBV core protein is less than 5 µM.

`CC1CC1C(=O)Nc1nc2c(s1)CN(C(=O)c1cc3ccccc3[nH]1)CC2` (stereo not shown) [Example 268, N-[5-(1H-indole-2-carbonyl)-4H,5H,6H,7H-[1,3]thiazolo[5,4-c]pyridin-2-yl]-2-methylcyclopropane-1-carboxamide]: the EC50 in the assay on HBV was less than 1 µM. The IC50 at HBV core protein was in the range of 5 to 10 µM.

For the compound `O=C(c1cc2ccccc2[nH]1)N1CCc2nc(NCC(O)CO)sc2C1` (stereo not shown) [Example 208, 3-{[5-(1H-indole-2-carbonyl)-4H,5H,6H,7H-[1,3]thiazolo[5,4-c]pyridin-2-yl]amino}propane-1,2-diol], the EC50 in the assay on HBV is less than 1 µM. The IC50 on HBV core protein is less than 5 µM.

On to `CS(=O)(=O)NC(=O)Nc1nc2c(s1)CN(C(=O)c1cc3ccccc3[nH]1)CC2` [Example 393, 1-[5-(1H-indole-2-carbonyl)-4H,5H,6H,7H-[1,3]thiazolo[5,4-c]pyridin-2-yl]-3-methanesulfonylurea], for which the EC50 with HBV fell in the range of 1 to 10 µM. Besides, the concentration for half-maximal inhibition (IC50) at HBV core protein fell in the range of 5 to 10 µM.

For `O=C(CC1CCOCC1)Nc1nc2c(s1)CN(C(=O)c1cc3ccccc3[nH]1)CC2` [Example 20, N-[5-(1H-indole-2-carbonyl)-4H,5H,6H,7H-[1,3]thiazolo[5,4-c]pyridin-2-yl]-2-(oxan-4-yl)acetamide], the EC50 in the assay with HBV was less than 1 µM. For the same compound, the IC50 at HBV core protein is less than 5 µM.

Take `CCc1cccc2[nH]c(C(=O)N3CCc4nc(NCC5(O)CCC5)sc4C3)cc12` [Example 338, 1-({[5-(4-ethyl-1H-indole-2-carbonyl)-4H,5H,6H,7H-[1,3]thiazolo[5,4-c]pyridin-2-yl]amino}methyl)cyclobutan-1-ol]: the EC50 in the assay on HBV is less than 1 µM. For the same compound, the IC50 on HBV core protein is less than 5 µM.

`Nc1nc2c(s1)CN(C(=O)c1cc3c(F)cc(Cl)cc3[nH]1)CC2` [Example 147, 5-(6-chloro-4-fluoro-1H-indole-2-carbonyl)-4H,5H,6H,7H-[1,3]thiazolo[5,4-c]pyridin-2-amine]: the EC50 in the assay with HBV was less than 1 µM. Moreover, at HBV core protein, the IC50 is less than 5 µM.

In the case of `CCc1cccc2[nH]c(C(=O)N3CCc4nc(NC(=O)C5(C)CC5)sc4C3)cc12` [Example 333, N-[5-(4-ethyl-1H-indole-2-carbonyl)-4H,5H,6H,7H-[1,3]thiazolo[5,4-c]pyridin-2-yl]-1-methylcyclopropane-1-carboxamide], the EC50 in the assay with HBV was less than 1 µM. Besides, at HBV core protein, the IC50 is less than 5 µM.

On to `CC(O)CNc1nc2c(s1)CN(C(=O)c1cc3ccccc3[nH]1)CC2` (stereo in doubt) [Example 131, (2S)-1-{[5-(1H-indole-2-carbonyl)-4H,5H,6H,7H-[1,3]thiazolo[5,4-c]pyridin-2-yl]amino}propan-2-ol], for which, in the assay with HBV, the EC50 is less than 1 µM. At HBV core protein, the IC50 was less than 5 µM.

For `N#Cc1ccc(F)c2[nH]c(C(=O)N3CCc4nc(N)sc4C3)cc12` [Example 79, 2-{2-amino-4H,5H,6H,7H-[1,3]thiazolo[5,4-c]pyridine-5-carbonyl}-7-fluoro-1H-indole-4-carbonitrile], in the assay with HBV, the EC50 was 1 to 10 µM. The IC50 at HBV core protein was less than 100 µM.

For the compound `CC(=O)N1CCOCC1CNc1nc2c(s1)CN(C(=O)c1cc3ccccc3[nH]1)CC2` (stereo not shown) [Example 232, 1-[3-({[5-(1H-indole-2-carbonyl)-4H,5H,6H,7H-[1,3]thiazolo[5,4-c]pyridin-2-yl]amino}methyl)morpholin-4-yl]ethan-1-one], the EC50 in the assay with HBV is less than 1 µM. The IC50 on HBV core protein lay within 5 to 10 µM.

On to `O=C(c1cc2c(F)ccc(F)c2[nH]1)N1CCc2nc(NC3CCOC3)sc2C1` (stereo not shown) [Example 132, 5-(4,7-difluoro-1H-indole-2-carbonyl)-N-(oxolan-3-yl)-4H,5H,6H,7H-[1,3]thiazolo[5,4-c]pyridin-2-amine], for which the EC50 with HBV is less than 1 µM. Further, at HBV core protein, the IC50 was less than 5 µM.

Take `CN(C)CC(=O)Nc1nc2c(s1)CN(C(=O)c1cc3ccccc3[nH]1)CC2` [Example 62, 2-(dimethylamino)-N-[5-(1H-indole-2-carbonyl)-4H,5H,6H,7H-[1,3]thiazolo[5,4-c]pyridin-2-yl]acetamide]: in the assay on HBV, the EC50 was less than 1 µM. The IC50 at HBV core protein fell in the range of 5 to 10 µM.

Consider `Cc1cc(C)c2cc(C(=O)N3CCc4nc(N)sc4C3)[nH]c2c1` [Example 138, 5-(4,6-dimethyl-1H-indole-2-carbonyl)-4H,5H,6H,7H-[1,3]thiazolo[5,4-c]pyridin-2-amine], for which the EC50 in the assay on HBV fell in the range of 1 to 10 µM. Also, the IC50 on HBV core protein was less than 5 µM.

`Nc1nc2c(s1)CN(C(=O)c1cc3c(C(F)F)cccc3[nH]1)CC2` [Example 293, 5-[4-(difluoromethyl)-1H-indole-2-carbonyl]-4H,5H,6H,7H-[1,3]thiazolo[5,4-c]pyridin-2-amine]: the EC50 in the assay on HBV was less than 1 µM. In addition, the IC50 at HBV core protein is less than 5 µM.

Consider `Nc1nc2c(s1)CN(C(=O)c1cc3cccc(O)c3[nH]1)CC2` [Example 98, 2-{2-amino-4H,5H,6H,7H-[1,3]thiazolo[5,4-c]pyridine-5-carbonyl}-1H-indol-7-ol], for which the EC50 with HBV is less than 100 µM. Moreover, the IC50 at HBV core protein is less than 100 µM.

For `COC1CCC(Nc2nc3c(s2)CN(C(=O)c2cc4ccccc4[nH]2)CC3)CC1` (stereo not shown) [Example 310, 5-(1H-indole-2-carbonyl)-N-(4-methoxycyclohexyl)-4H,5H,6H,7H-[1,3]thiazolo[5,4-c]pyridin-2-amine], the EC50 in the assay with HBV is less than 1 µM. Moreover, the IC50 at HBV core protein is 5 to 10 µM.

On to `O=C(c1cc2c(Cl)cccc2[nH]1)N1CCc2nc(NCC3(O)CCC3)sc2C1` [Example 311, 1-({[5-(4-chloro-1H-indole-2-carbonyl)-4H,5H,6H,7H-[1,3]thiazolo[5,4-c]pyridin-2-yl]amino}methyl)cyclobutan-1-ol], for which the EC50 with HBV was less than 1 µM. In addition, the IC50 on HBV core protein is less than 5 µM.

As to `O=C(c1cc2c(Cl)ccc(F)c2[nH]1)N1CCc2nc(NCC3CCOC3)sc2C1` (stereo not shown) [Example 116, 5-(4-chloro-7-fluoro-1H-indole-2-carbonyl)-N-[(oxolan-3-yl)methyl]-4H,5H,6H,7H-[1,3]thiazolo[5,4-c]pyridin-2-amine], in the assay with HBV, the EC50 is less than 1 µM. Besides, at HBV core protein, the IC50 was 5 to 10 µM.

As to `CC(C)(CO)Nc1nc2c(s1)CN(C(=O)c1cc3ccccc3[nH]1)CC2` [Example 68, 2-{[5-(1H-indole-2-carbonyl)-4H,5H,6H,7H-[1,3]thiazolo[5,4-c]pyridin-2-yl]amino}-2-methylpropan-1-ol], the EC50 with HBV is less than 1 µM. In addition, the IC50 on HBV core protein was less than 5 µM.

On to `N#Cc1cc(F)cc2[nH]c(C(=O)N3CCc4nc(NCC5CCOC5)sc4C3)cc12` (stereo not shown) [Example 103, 5-(4-cyano-6-fluoro-1H-indole-2-carbonyl)-N-[(oxolan-3-yl)methyl]-4H,5H,6H,7H-[1,3]thiazolo[5,4-c]pyridin-2-amine], for which the EC50 in the assay on HBV is less than 1 µM. Further, the IC50 on HBV core protein is 5 to 10 µM.
